# Patent US20150087673A1, “METHODS FOR USING AND BIOMARKERS FOR AMPK-ACTIVATING COMPOUNDS” (RIGEL PHARMACEUTICALS, INC., priority 2013, published 2015)
# System: AMPK
# Assay: AMPK activation assay (enzyme-linked immunosorbent assay)
# Format: cell-based
# In short: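 Compounds were tested for their capacity to activate the kinase using standard, commercially available kit reagents and procedures.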
row,SMILES,EC50
1,"COc1ccc(C(=O)C2CCN(C(=O)c3ccc(C(=O)Nc4ccc(Oc5ccc(F)cc5)nc4)cn3)CC2)cc1 [Compound 325, N-(6-(4-fluorophenoxy)pyridin-3-yl)-6-(4-(4-methoxybenzoyl)piperidine-1-carbonyl)nicotinamide]",< 500 nM
2,"N#Cc1ccc(OC2CCN(C(=O)c3ccc(C(=O)Nc4ccc(Oc5ccc(F)cc5)nc4)cn3)CC2)cc1 [Compound 326, 6-(4-(4-cyanophenoxy)piperidine-1-carbonyl)-N-(6-(4-fluorophenoxy)pyridin-3-yl)nicotinamide]",< 500 nM
3,"COc1ccc(CN2CCC(NC(=O)c3ccc(C(=O)N4CCN(Cc5ccc(F)cc5)CC4)nc3)CC2)cc1 [Compound 327, 6-(4-(4-fluorobenzyl)piperazine-1-carbonyl)-N-(1-(4-methoxybenzyl)piperidin-4-yl) nicotinamide]",< 500 nM
4,"O=C(NC1CCN(Cc2ccc(F)cc2)CC1)c1ccc(C(=O)N2CCN(Cc3ccc(F)cc3)CC2)nc1 [Compound 328, 6-(4-(4-fluorobenzyl)piperazine-1-carbonyl)-N-(1-(4-fluorobenzyl)piperidin-4-yl)nicotinamide]",< 500 nM
5,"COc1ccc(CN2CCC(NC(=O)c3ccc(C(=O)N4CCC(C(=O)c5ccc(F)c(F)c5)CC4)cn3)CC2)cc1 [Compound 329, 5-(4-(3,4-difluorobenzoyl)piperidine-1-carbonyl)-N-(1-(4-methoxybenzyl)piperidin-4-yl) picolinamide]",< 500 nM
6,"O=C(Nc1ccc(Oc2ccc(F)cc2)nc1)c1ccc(C(=O)N2CCC(C(=O)c3ccc(F)c(F)c3)CC2)cn1 [Compound 330, 5-(4-(3,4-difluorobenzoyl)piperidine-1-carbonyl)-N-(6-(4-fluorophenoxy)pyridin-3-yl)picolinamide]",500 to 1000 nM
7,"COc1ccc(CN2CCC(NC(=O)c3ccc(C(=O)N4CCC(C(=O)c5ccc(F)cc5F)CC4)cn3)CC2)cc1 [Compound 331, 5-(4-(2,4-difluorobenzoyl)piperidine-1-carbonyl)-N-(1-(4-methoxybenzyl)piperidin-4-yl) picolinamide]",< 500 nM
8,"N#Cc1ccc(O[C@H]2CC[C@@H](NC(=O)c3ccc(C(=O)N4CCN(Cc5ccc(F)cc5)CC4)nc3)CC2)cc1 [Compound 332, N-((cis)-4-(4-cyanophenoxy)cyclohexyl)-6-(4-(4-fluorobenzyl)piperazine-1-carbonyl)nicotinamide]",< 500 nM
9,"CC(C)(C)OC(=O)N1CCC(NC(=O)c2ccc(C(=O)N3CCC(Oc4ccc(C#N)cc4)CC3)nc2)CC1 [Compound 333, tert-butyl 4-(6-(4-(4-cyanophenoxy)piperidine-1-carbonyl)nicotinamido) piperidine-1-carboxylate]",< 500 nM
10,"O=C(Nc1ccc(Oc2ccc(F)cc2)nc1)c1ccc(C(=O)N2CCN(Cc3ccc(F)cc3)CC2)nc1 [Compound 334, 6-(4-(4-fluorobenzyl)piperazine-1-carbonyl)-N-(6-(4-fluorophenoxy)pyridin-3-yl)nicotinamide]",< 500 nM
11,"N#Cc1ccc(OC2CCN(C(=O)c3ccc(C(=O)NC4CCNCC4)cn3)CC2)cc1 [Compound 335, 6-(4-(4-cyanophenoxy)piperidine-1-carbonyl)-N-(piperidin-4-yl) nicotinamide]",> 10000 nM
12,"N#Cc1ccc(OC2CCN(C(=O)c3ccc(C(=O)NC4CCN(Cc5ccc(N6CCCC6)cc5)CC4)cn3)CC2)cc1 [Compound 336, 6-(4-(4-cyanophenoxy)piperidine-1-carbonyl)-N-(1-(4-(pyrrolidin-1-yl)benzyl)piperidin-4-yl)nicotinamide]",< 500 nM
13,"N#Cc1ccc(OC2CCN(C(=O)c3ccc(C(=O)NC4CCN(Cc5ccc(N6CCOCC6)cc5)CC4)cn3)CC2)cc1 [Compound 337, 6-(4-(4-cyanophenoxy)piperidine-1-carbonyl)-N-(1-(4-morpholinobenzyl)piperidin-4-yl)nicotinamide]",< 500 nM
14,"N#Cc1ccc(OC2CCN(C(=O)c3ccc(C(=O)NC4CCN(Cc5ccc(OC(F)(F)F)cc5)CC4)cn3)CC2)cc1 [Compound 338, 6-(4-(4-cyanophenoxy)piperidine-1-carbonyl)-N-(1-(4-(trifluoromethoxy)benzyl)piperidin-4-yl)nicotinamide]",< 500 nM
15,"N#Cc1ccc(CN2CCC(NC(=O)c3ccc(C(=O)N4CCN(c5ccc(C(F)(F)F)cc5)CC4)cn3)CC2)cc1 [Compound 339, N-(1-(4-cyanobenzyl)piperidin-4-yl)-5-(4-(4-(trifluoromethyl)phenyl)piperazine-1-carbonyl)picolinamide]",< 500 nM
16,"N#Cc1ccc(CN2CCC(NC(=O)c3ccc(C(=O)N4CCN(c5ccc(C#N)cc5)CC4)cn3)CC2)cc1 [Compound 340, N-(1-(4-cyanobenzyl)piperidin-4-yl)-5-(4-(4-cyanophenyl)piperazine-1-carbonyl)picolinamide]",< 500 nM
17,"N#Cc1ccc(CN2CCC(NC(=O)c3ccc(C(=O)N4CCN(c5ccc(F)cc5)CC4)cn3)CC2)cc1 [Compound 341, N-(1-(4-cyanobenzyl)piperidin-4-yl)-5-(4-(4-fluorophenyl)piperazine-1-carbonyl)picolinamide]",< 500 nM

row,SMILES,EC50
1,"O=C(Nc1ccc(Oc2ccc(F)cc2)nc1)c1ccc(C(=O)N2CCC(C(=O)c3ccc(F)cc3F)CC2)cn1 [Compound 342, 5-(4-(2,4-difluorobenzoyl)piperidine-1-carbonyl)-N-(6-(4-fluorophenoxy)pyridin-3-yl)picolinamide]",< 500 nM
2,"O=C(Nc1ccc(Oc2ccc(F)cc2)nc1)c1ccc(C(=O)N2CCC(Oc3ccc(F)cc3F)CC2)nc1 [Compound 343, 6-(4-(2,4-difluorophenoxy)piperidine-1-carbonyl)-N-(6-(4-fluorophenoxy)pyridin-3-yl)nicotinamide]",< 500 nM
3,"COc1ccc(CN2CCC(NC(=O)c3ccc(C(=O)N4CCC(Oc5ccc(F)cc5F)CC4)nc3)CC2)cc1 [Compound 344, 6-(4-(2,4-difluorophenoxy)piperidine-1-carbonyl)-N-(1-(4-methoxybenzyl)piperidin-4-yl)nicotinamide]",< 500 nM
4,"N#Cc1ccc(CN2CCC(NC(=O)c3ccc(C(=O)N4CCC(Oc5ccc(F)cc5F)CC4)nc3)CC2)cc1 [Compound 345, N-(1-(4-cyanobenzyl)piperidin-4-yl)-6-(4-(2,4-difluorophenoxy)piperidine-1-carbonyl)nicotinamide]",< 500 nM
5,"N#Cc1ccc(CN2CCC(NC(=O)c3ccc(C(=O)N4CCC(C(=O)c5ccc(F)cc5F)CC4)nc3)CC2)cc1 [Compound 346, N-(1-(4-cyanobenzyl)piperidin-4-yl)-6-(4-(2,4-difluorobenzoyl)piperidine-1-carbonyl)nicotinamide]",< 500 nM
6,"COc1ccc(CN2CCC(NC(=O)c3ccc(C(=O)N4CCC(C(=O)c5ccc(F)cc5F)CC4)nc3)CC2)cc1 [Compound 347, 6-(4-(2,4-difluorobenzoyl)piperidine-1-carbonyl)-N-(1-(4-methoxybenzyl)piperidin-4-yl)nicotinamide]",< 500 nM
7,"O=C(Nc1ccc(Oc2ccc(F)cc2)nc1)c1ccc(C(=O)N2CCC(C(=O)c3ccc(F)cc3F)CC2)nc1 [Compound 348, 6-(4-(2,4-difluorobenzoyl)piperidine-1-carbonyl)-N-(6-(4-fluorophenoxy)pyridin-3-yl)nicotinamide]",< 500 nM
8,"N#Cc1ccc(CN2CCC(NC(=O)c3ccc(N4CCC(Oc5ccc(C#N)cc5)CC4)nn3)CC2)cc1 [Compound 351, N-(1-(4-cyanobenzyl)piperidin-4-yl)-6-(4-(4-cyanophenoxy)piperidin-1-yl) pyridazine-3-carboxamide]",< 500 nM
9,"N#Cc1ccc(OC2CCN(C(=O)c3ccc(C(=O)NC4CCN(Cc5cocn5)CC4)cn3)CC2)cc1 [Compound 355, 6-(4-(4-cyanophenoxy)piperidine-1-carbonyl)-N-(1-(oxazol-4-ylmethyl)piperidin-4-yl)nicotinamide]",> 10000 nM
10,"N#Cc1ccc(OC2CCN(C(=O)c3ccc(C(=O)NC4CCN(Cc5nccs5)CC4)cn3)CC2)cc1 [Compound 356, 6-(4-(4-cyanophenoxy)piperidine-1-carbonyl)-N-(1-(thiazol-2-ylmethyl)piperidin-4-yl)nicotinamide]",< 500 nM
11,"CN(C)C(=O)c1ccc(OC2CCN(C(=O)c3ccc(C(=O)NC4CCN(Cc5ccc(C#N)cc5)CC4)nc3)CC2)cc1 [Compound 357, N-(1-(4-cyanobenzyl)piperidin-4-yl)-5-(4-(4-(dimethylcarbamoyl)phenoxy)piperidine-1-carbonyl)picolinamide]",< 500 nM
12,"CC(=O)c1ccc(OC2CCN(C(=O)c3ccc(C(=O)NC4CCN(Cc5ccc(C#N)cc5)CC4)nc3)CC2)cc1 [Compound 358, 5-(4-(4-acetylphenoxy)piperidine-1-carbonyl)-N-(1-(4-cyanobenzyl)piperidin-4-yl)picolinamide]",< 500 nM
13,"CC(=O)c1ccc(OC2CCN(C(=O)c3ccc(C(=O)Nc4ccc(Oc5ccc(F)cc5)nc4)nc3)CC2)cc1 [Compound 359, 5-(4-(4-acetylphenoxy)piperidine-1-carbonyl)-N-(6-(4-fluorophenoxy)pyridin-3-yl)picolinamide]",< 500 nM
14,"CN(C)C(=O)c1ccc(OC2CCN(C(=O)c3ccc(C(=O)Nc4ccc(Oc5ccc(F)cc5)nc4)nc3)CC2)cc1 [Compound 360, 5-(4-(4-(dimethylcarbamoyl)phenoxy)piperidine-1-carbonyl)-N-(6-(4-fluorophenoxy)pyridin-3-yl)picolinamide]",< 500 nM
15,"N#Cc1ccc(CN2CCC(NC(=O)c3ccc(N4CCC(Oc5ccc(C(F)(F)F)cc5)CC4)nn3)CC2)cc1 [Compound 361, N-(1-(4-cyanobenzyl)piperidin-4-yl)-6-(4-(4-(trifluoromethyl)phenoxy)piperidin-1-yl)pyridazine-3-carboxamide]",< 500 nM
16,"COc1ccc(C(=O)C2CCN(c3ccc(C(=O)NC4CCN(Cc5ccc(C#N)cc5)CC4)nn3)CC2)cc1 [Compound 362, N-(1-(4-cyanobenzyl)piperidin-4-yl)-6-(4-(4-methoxybenzoyl)piperidin-1-yl)pyridazine-3-carboxamide]",< 500 nM
17,"N#Cc1ccc(CN2CCC(NC(=O)c3ccc(C(=O)N4CCC(Oc5ccc([N+](=O)[O-])cc5)CC4)nc3)CC2)cc1 [Compound 363, N-(1-(4-cyanobenzyl)piperidin-4-yl)-6-(4-(4-nitrophenoxy)piperidine-1-carbonyl)nicotinamide]",< 500 nM
